pIC50: −log10 of the molar value.

The experiment concerns the target T1, SARM1 (50-724) (Homo sapiens, UniProt Q6SZW1).
T1 sequence (Q6SZW1 50-724): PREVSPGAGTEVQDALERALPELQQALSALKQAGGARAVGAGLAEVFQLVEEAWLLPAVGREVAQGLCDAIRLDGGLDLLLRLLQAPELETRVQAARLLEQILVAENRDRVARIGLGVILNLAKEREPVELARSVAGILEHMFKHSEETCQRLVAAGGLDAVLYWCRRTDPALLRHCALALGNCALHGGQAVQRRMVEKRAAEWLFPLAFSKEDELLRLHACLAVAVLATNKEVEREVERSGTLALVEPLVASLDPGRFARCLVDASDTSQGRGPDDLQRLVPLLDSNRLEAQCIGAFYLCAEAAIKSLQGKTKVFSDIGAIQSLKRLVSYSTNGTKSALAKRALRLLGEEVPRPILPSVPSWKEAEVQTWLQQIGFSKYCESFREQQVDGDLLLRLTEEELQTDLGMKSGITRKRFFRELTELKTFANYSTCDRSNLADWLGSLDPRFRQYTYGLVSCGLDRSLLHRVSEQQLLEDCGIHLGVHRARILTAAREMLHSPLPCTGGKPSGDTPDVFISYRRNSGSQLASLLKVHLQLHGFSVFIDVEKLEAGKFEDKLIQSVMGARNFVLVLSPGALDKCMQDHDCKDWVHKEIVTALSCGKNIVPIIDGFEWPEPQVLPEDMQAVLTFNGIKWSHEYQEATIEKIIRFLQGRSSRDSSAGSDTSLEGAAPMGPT
Kind of experiment: biochemical.
Description: An enzymatic assay was performed in a 384-well plate using Dulbecco's phosphate-buffered saline (PBS) as the reaction buffer. […] The reaction was initiated by adding a mixture of 200 μM nicotinamide mononucleotide (NMN) as activator and 100 μM NAD^+ as substrate. After 1 h of incubation at room temperature, the reaction was terminated with 10 times volume of 70% acetonitrile, then centrifuged at 3800 rpm for 10 min.
Broadly, the pIC50 is −log10 of the IC50, conventionally taken in molar units. Compound `CC1(C)CN(C(=O)c2ccccn2)c2cc(NS(=O)(=O)c3cccc(Cl)c3Cl)ccc21` [Compound 281, 2,3-dichloro-N-(3,3-dimethyl-1-picolinoylindolin-6-yl)benzenesulfonamide] gave a pIC50 of more than 7.00. The value for `CC1(C)CN(C(=O)C2CCOCC2)c2cc(NS(=O)(=O)c3cccc(Cl)c3Cl)ccc21` [Compound 284, 2,3-dichloro-N-[3,3-dimethyl-1-(tetrahydropyran-4-carbonyl)indolin-6-yl]benzenesulfonamide] was more than 7.00; that for `CC1(C)CN(C(=O)c2cccnc2)c2cc(NS(=O)(=O)c3cccc(Cl)c3Cl)ccc21` [Compound 285, 2,3-dichloro-N-(3,3-dimethyl-1-nicotinoylindolin-6-yl)benzenesulfonamide] was more than 7.00; that for `CC(Nc1ccc2c(c1)c(N)nn2C)c1nc(Cl)c(Cl)s1` (centres unmarked) [Compound 288, N5-(1-(4,5-dichlorothiazol-2-yl)ethyl)-1-methyl-1H-indazole-3,5-diamine] was more than 7.00. The value for `CC1(C)c2ccc(NS(=O)(=O)c3cccc(Cl)c3Cl)cc2C(=O)N1CC(N)=O` [Compound 289, 2-(5-((2,3-dichlorophenyl)sulfonamido)-1,1-dimethyl-3-oxoisoindolin-2-yl)acetamide] was more than 7.00; that for `Cn1ccc(C(=O)N2CC(C)(C)c3ccc(NS(=O)(=O)c4cccc(Cl)c4Cl)cc32)n1` [Compound 295, 2,3-dichloro-N-(3,3-dimethyl-1-(1-methyl-1H-pyrazole-3-carbonyl)indolin-6-yl)benzenesulfonamide] was more than 7.00; that for `CC1(C)CN(C(=O)CC(N)=O)c2cc(NS(=O)(=O)c3cccc(Cl)c3Cl)ccc21` [Compound 299, 3-(6-((2,3-dichlorophenyl)sulfonamido)-3,3-dimethylindolin-1-yl)-3-oxopropanamide] was more than 7.00. The value for `CC1(C)c2ccc(NS(=O)(=O)c3cccc(Cl)c3Cl)cc2C(=O)N1CCO` [Compound 303] was 6.30 to 7.00. In the case of `NC(=O)Cn1ccc2ccc(NS(=O)(=O)c3cccc(Cl)c3Cl)cc2c1=O` [Compound 306, 2-(7-((2,3-dichlorophenyl)sulfonamido)-1-oxoisoquinolin-2(1H)-yl)acetamide], the pIC50 was more than 7.00. `CC1(C)C(=O)N(Cc2ccncc2)c2cc(NS(=O)(=O)c3cccc(Cl)c3Cl)ccc21` [Compound 309, 2,3-dichloro-N-(3,3-dimethyl-2-oxo-1-(pyridin-4-ylmethyl)indolin-6-yl)benzenesulfonamide] had a pIC50 of more than 7.00. Consider `CC1(C)CN(C(=O)C2(C(N)=O)CC2)c2cc(NS(=O)(=O)c3cccc(Cl)c3Cl)ccc21` [Compound 313, 1-(6-((2,3-dichlorophenyl)sulfonamido)-3,3-dimethylindoline-1-carbonyl)cyclopropane-1-carboxamide], for which the pIC50 was more than 7.00. For the compound `CC1(C)CN(S(N)(=O)=O)c2cc(NS(=O)(=O)c3cccc(Cl)c3Cl)ccc21` [Compound 319, 6-((2,3-dichlorophenyl)sulfonamido)-3,3-dimethylindoline-1-sulfonamide], the pIC50 was more than 7.00.

As for `CC(Nc1ccc2cc[nH]c(=O)c2c1)c1nn(C2CCC2)c(Cl)c1Cl` (centres unmarked) [Compound 322, 7-((1-(4,5-dichloro-1-cyclobutyl-1H-pyrazol-3-yl)ethyl)amino)isoquinolin-1(2H)-one], the pIC50 is more than 7.00.

In the case of `CC1(C)CN(C(=O)c2cc[nH]c(=O)c2)c2cc(NS(=O)(=O)c3cccc(Cl)c3Cl)ccc21` [Compound 326, 2,3-dichloro-N-(3,3-dimethyl-1-(2-oxo-1,2-dihydropyridine-4-carbonyl)indolin-6-yl)benzenesulfonamide], the pIC50 was more than 7.00. `CC1(C)C(=O)N(CC2CNC(=O)CO2)c2cc(NS(=O)(=O)c3cccc(Cl)c3Cl)ccc21` (centres unmarked) [Compound 333, 2,3-dichloro-N-(3,3-dimethyl-2-oxo-1-((5-oxomorpholin-2-yl)methyl)indolin-6-yl)benzenesulfonamide] had a pIC50 of more than 7.00. The value for `CC(Nc1cc(F)c2ncn(C3CC(O)C3)c(=O)c2c1)c1nc(Cl)c(Cl)s1` (centres unmarked) [Compound 340, 6-((1-(4,5-dichlorothiazol-2-yl)ethyl)amino)-8-fluoro-3-(3-ydroxycyclobutyl)quinazolin-4(3H)-one] was more than 7.00; that for `Cc1ccc(C)c(S(=O)(=O)Nc2ccc3c(c2)C(=O)NCC3)c1` [Example 2A, 2,5-dimethyl-N-(1-oxo-1,2,3,4-tetrahydroisoquinolin-7-yl)benzenesulfonamide] was less than 6.00. On to `Cc1ccc(S(=O)(=O)Nc2ccc3c(c2)C(=O)NCC3)c(C)c1` [Example 3A, 2,4-dimethyl-N-(1-oxo-1,2,3,4-tetrahydroisoquinolin-7-yl)benzenesulfonamide], for which the pIC50 is less than 6.00.

`Cc1cc(F)ccc1S(=O)(=O)Nc1ccc2c(c1)C(=O)NCC2` [Example 4A, 4-fluoro-2-methyl-N-(1-oxo-1,2,3,4-tetrahydroisoquinolin-7-yl)benzenesulfonamide] had a pIC50 of less than 6.00.

For the compound `Cc1c(Cl)cccc1S(=O)(=O)Nc1ccc2c(c1)C(=O)NCC2` [Example 5A, 3-chloro-2-methyl-N-(1-oxo-1,2,3,4-tetrahydroisoquinolin-7-yl)benzenesulfonamide], the negative logarithm of the IC50 (pIC50) was more than 7.00.

The compound `O=C1NCCc2ccc(NS(=O)(=O)c3ccccc3Cl)cc21` [Example 6A, 2-chloro-N-(1-oxo-1,2,3,4-tetrahydroisoquinolin-7-yl)benzenesulfonamide] showed a pIC50 of less than 6.00.

`Cc1cc(S(=O)(=O)Nc2ccc(CC(N)=O)cc2)c(F)cc1F` [Example 8A]: the negative-log IC50 (pIC50) is less than 6.00. `O=C1NCCc2ccc(NS(=O)(=O)c3ccc(F)c(Cl)c3)cc21` [Example 9A, 3-chloro-4-fluoro-N-(1-oxo-1,2,3,4-tetrahydroisoquinolin-7-yl)benzenesulfonamide] gave a pIC50 of less than 6.00. For `Cc1cc(C)c(S(=O)(=O)Nc2ccc3c(c2)C(=O)NCC3)c(C)c1` [Example 10A, 2,4,6-trimethyl-N-(1-oxo-1,2,3,4-tetrahydroisoquinolin-7-yl)benzenesulfonamide], the pIC50 is 6.00 to 6.30. In the case of `CC(Nc1ccc2cn[nH]c2c1)c1cccc(Cl)c1Cl` (centres unmarked) [Example 12A, N-(1-(2,3-dichlorophenyl)ethyl)-1H-indazol-6-amine], the pIC50 is 6.00 to 6.30. Compound `CC(Nc1ccc2ccccc2c1)c1cccc(Cl)c1Cl` (centres unmarked) [Example 13A, N-(1-(2,3-dichlorophenyl)ethyl)naphthalen-2-amine] gave a pIC50 of less than 6.00. The value for `O=C1NCCc2ccc(NS(=O)(=O)c3ccc(F)cc3F)cc21` [Example 14A, 2,4-difluoro-N-(1-oxo-1,2,3,4-tetrahydroisoquinolin-7-yl)benzenesulfonamide] was less than 6.00; that for `Cc1cc(F)cc(S(=O)(=O)Nc2ccc3c(c2)C(=O)NCC3)c1` [Example 15A, 3-fluoro-5-methyl-N-(1-oxo-1,2,3,4-tetrahydroisoquinolin-7-yl)benzenesulfonamide] was less than 6.00; that for `O=C1NCCc2ccc(NC(c3ccccc3)c3ccccc3)cc21` [Example 124, 7-(benzhydrylamino)-3,4-dihydroisoquinolin-1(2H)-one] was less than 6.00. The value for `Cc1c(F)cccc1[S+]([O-])Nc1ccc2c(c1)C(=O)NCC2` (centres unmarked) [Example 158] was less than 6.00; that for `Cc1c(F)cccc1S(=O)(=O)Nc1cccc(-c2cscn2)c1` [Example 159, 3-fluoro-2-methyl-N-(3-(thiazol-4-yl)phenyl)benzenesulfonamide] was 6.00 to 6.30; that for `Cc1c(F)cccc1S(=O)(=O)Nc1cccc(-c2ccccn2)c1` [Example 160, 3-fluoro-2-methyl-N-(3-(pyridin-2-yl)phenyl)benzenesulfonamide] was 6.00 to 6.30. To `Cc1c(F)cccc1S(=O)(=O)Nc1cccc(-c2cnn(C)c2)c1` [Example 161, 3-fluoro-2-methyl-N-(3-(1-methyl-1H-pyrazol-4-yl)phenyl)benzenesulfonamide] belongs less than 6.00. On to `Cc1c(F)cccc1S(=O)(=O)Nc1cccc(-c2ccc[nH]c2=O)c1` [Example 162, 3-fluoro-2-methyl-N-[3-(2-oxo-1,2-dihydropyridin-3-yl)phenyl]benzenesulfonamide], for which the pIC50 is less than 6.00. Regarding `Cc1cc(F)cc(C(CO)Nc2ccc3c(c2)C(=O)NCC3)c1` (centres unmarked) [Example 163, 7-((1-(3-fluoro-5-methylphenyl)-2-hydroxyethyl)amino)-3,4-dihydroisoquinolin-1(2H)-one], the pIC50 is less than 6.00. For `CC1CCN(S(=O)(=O)Nc2ccc3c(c2)C(=O)NCC3)CC1` [Example 164, 4-methyl-N-(1-oxo-1,2,3,4-tetrahydroisoquinolin-7-yl)piperidine-1-sulfonamide], the pIC50 is less than 6.00. The value for `CC1CN(S(=O)(=O)Nc2ccc3c(c2)C(=O)NCC3)CC(C)O1` (centres unmarked) [Example 165, 2,6-dimethyl-N-(1-oxo-1,2,3,4-tetrahydroisoquinolin-7-yl)morpholine-4-sulfonamide] was less than 6.00.

As for `O=C1NCCc2ccc(NS(=O)(=O)N3C4CCCC3CC4)cc21` [Example 166, N-(1-oxo-1,2,3,4-tetrahydroisoquinolin-7-yl)-8-azabicyclo[3.2.1]octane-8-sulfonamide], the pIC50 is less than 6.00.

The values are drawn from patent US20250320184A1 (SIRONAX LTD., priority 2022, published 2025).
